Data from ChEMBL document CHEMBL2203251, “Discovery of two clinical histamine H(3) receptor antagonists: trans-N-ethyl-3-fluoro-3-[3-fluoro-4-(pyrrolidinylmethyl)phenyl]cyclobutanecarboxamide (PF-03654746) and trans-3-fluoro-3-[3-fluoro-4-(pyrrolidin-1-ylmethyl)phenyl]-N-(2-methylpropyl)cyclobutanecarboxamide (PF-03654764)” (J Med Chem, 2011).
Values joined by “and” are separate entries in the source; they are usually repeats but may differ in a detail not shown here. Equal entries are not always repeated.

Legend:
[1] = human, thle, 24 h
Description: Toxicity in human THLE cells assessed as drug-induced phospholipid accumulation after 24 hrs by Hoechst staining-based microscopic analysis

[2] = system: Rattus norvegicus; assay: Toxicity in Sprague-Dawley rat assessed as decrease in food intake at 300 mg/kg, po administered for 14 days; assay type: organism-based; parameters: dose 300 mg/kg, route oral; details: in vivo, 336 h
[3] = in vivo; details: Sprague-Dawley, rat, po
Description: Toxicity in po dosed Sprague-Dawley rat administered for 14 days

[4] = in vivo; details: Sprague-Dawley, rat, po; remark: listed apart in the source
Description: Oral bioavailability in Sprague-Dawley rat

[5] = biological target: T1, Histamine H3 receptor (Homo sapiens, UniProt Q9Y5N1)
T1 sequence (Q9Y5N1 whole entry): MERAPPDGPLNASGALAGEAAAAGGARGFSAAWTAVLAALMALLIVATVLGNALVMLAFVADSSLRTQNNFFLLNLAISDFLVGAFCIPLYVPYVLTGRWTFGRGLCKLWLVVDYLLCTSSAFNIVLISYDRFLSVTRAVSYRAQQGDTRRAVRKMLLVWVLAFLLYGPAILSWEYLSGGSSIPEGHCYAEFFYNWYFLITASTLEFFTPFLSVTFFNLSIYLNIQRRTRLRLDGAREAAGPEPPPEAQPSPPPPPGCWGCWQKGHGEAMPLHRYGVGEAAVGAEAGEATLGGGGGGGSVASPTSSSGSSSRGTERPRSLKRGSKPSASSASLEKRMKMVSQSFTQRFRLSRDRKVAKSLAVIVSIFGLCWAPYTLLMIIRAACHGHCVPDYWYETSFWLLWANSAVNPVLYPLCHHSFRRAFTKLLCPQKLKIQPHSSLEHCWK
Description: Antagonist activity at human histamine H3 receptor expressed in human HEK293 cells assessed as inhibition of forskolin-induced cAMP release pretreated 10 mins prior forskolin stimulation measured after 4.5 hrs by spectrofluorimetric analysis

[6] = system: Canis familiaris; assay: Toxicity in beagle dog assessed as convulsion at 30 mg/kg, po administered for 7 days measured on day 3; assay type: organism-based, Canis lupus familiaris; parameters: dose 30 mg/kg, route oral; details: in vivo, 168 h
[7] = in vivo; details: beagle, dog, po
Description: Cmax in po dosed beagle dog administered for 7 days

[8] = in vivo; details: beagle, dog, po; remark: listed apart in the source
Description: Tmax in po dosed beagle dog administered for 7 days

[9] = biological target: T2, Histamine H3 receptor (Rattus norvegicus, UniProt Q9QYN8)
T2 sequence (Q9QYN8 whole entry): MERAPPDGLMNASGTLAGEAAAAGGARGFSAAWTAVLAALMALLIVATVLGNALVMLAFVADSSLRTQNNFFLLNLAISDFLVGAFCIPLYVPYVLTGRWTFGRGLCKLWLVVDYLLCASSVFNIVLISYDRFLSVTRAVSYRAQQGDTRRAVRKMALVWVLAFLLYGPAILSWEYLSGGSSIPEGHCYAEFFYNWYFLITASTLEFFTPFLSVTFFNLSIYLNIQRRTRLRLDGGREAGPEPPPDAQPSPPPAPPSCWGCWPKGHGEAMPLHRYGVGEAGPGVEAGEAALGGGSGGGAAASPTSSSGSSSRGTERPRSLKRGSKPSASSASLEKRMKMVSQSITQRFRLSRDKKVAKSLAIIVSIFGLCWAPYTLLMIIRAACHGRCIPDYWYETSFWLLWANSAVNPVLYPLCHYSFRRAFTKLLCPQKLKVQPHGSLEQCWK
Description: Displacement of [3H]-n-alpha-methylhistamine from rat histamine H3 receptor homogenate after 60 mins by scintillation counting

[10] = in vivo; details: Sprague-Dawley, rat, plasma, po
Description: AUC (0 to 24 hrs) in po dosed Sprague-Dawley rat administered for 14 days

[11] = in vitro; details: rat, plasma
Description: Fraction unbound in rat plasma

[12] = in vivo; details: beagle, dog, plasma, po
Description: AUC (0 to 24 hrs) in po dosed beagle dog administered for 7 days

[13] = system: Rattus norvegicus; assay: Toxicity in Sprague-Dawley rat assessed as decrease in body weight at 300 mg/kg, po administered for 14 days; assay type: organism-based; parameters: dose 300 mg/kg, route oral; details: in vivo, 336 h
[14] = in vitro; details: human, liver microsomes
Description: Half life in human liver microsomes

[15] = system: Liver microsomes; details: human
Description: Unbound intrinsic clearance in human liver microsomes

[16] = species on record: Homo sapiens; assay: Selectivity ratio of Ki for human histamine H4 receptor to Ki for human histamine H3 receptor
[17] = in vivo; details: beagle, dog, po; remark: listed apart in the source
Description: Toxicity in po dosed beagle dog administered for 7 days

[18] = biological target: T2, Histamine H3 receptor; remark: listed apart in the source
Description: Antagonist activity at rat histamine H3 receptor expressed in human HEK293 cells assessed as inhibition of forskolin-induced cAMP release pretreated 10 mins prior forskolin stimulation measured after 4.5 hrs by spectrofluorimetric analysis

[19] = biological target: T1, Histamine H3 receptor; remark: listed apart in the source
Description: Displacement of [3H]-n-alpha-methylhistamine from human histamine H3 receptor homogenate after 60 mins by scintillation counting

[20] = in vitro; details: human, plasma
Description: Fraction unbound in human plasma

[21] = system: MDR1 (human); assay: in vitro; details: dog, MDCK-MDR1
Description: Efflux ratio of permeability across basal to apical side over apical to basolateral side in dog MDCK cells expressing human MDR1

[22] = in vivo; details: Sprague-Dawley, rat, po; remark: listed apart in the source
Description: Tmax in po dosed Sprague-Dawley rat administered for 14 days

[23] = physchem
Description: Dissociation constant, pKa of the compound

[24] = Ratio of drug uptake in brain to plasma of Sprague-Dawley rat; assay type: ADME; details: read-out: BPR
[25] = AUC in Sprague-Dawley rat at 300 mg/kg, po administered for 14 days; assay type: ADME, organism-based; parameters: dose 300 mg/kg, route oral; details: plasma
[26] = in vitro; details: human, Caco-2
Description: Permeability across apical to basolateral side in human Caco2 cells at 2 uM

[27] = system: Rattus norvegicus; assay: Toxicity in Sprague-Dawley rat assessed as salivation at >= 100 mg/kg, po administered for 14 days; assay type: organism-based; parameters: dose 100 mg/kg, route oral; details: in vivo, 336 h
[28] = in vivo; details: Sprague-Dawley, rat, po; remark: listed apart in the source
Description: Cmax in po dosed Sprague-Dawley rat administered for 14 days

[29] = in vivo; details: Sprague-Dawley, rat, po; remark: listed apart in the source
Description: Tmax in po dosed Sprague-Dawley rat administered for 4 days

[30] = species on record: Homo sapiens; assay: Selectivity ratio of Ki for human histamine H2 receptor to Ki for human histamine H3 receptor
[31] = species on record: Homo sapiens; assay: Selectivity ratio of Ki for human histamine H1 receptor to Ki for human histamine H3 receptor
[32] = biological target: Voltage-gated inwardly rectifying potassium channel KCNH2 (Homo sapiens, UniProt Q12809); assay: Inhibition of human Erg expressed in human HEK293 cells; assay type: cell-based
Chain of Voltage-gated inwardly rectifying potassium channel KCNH2 (Q12809 whole entry): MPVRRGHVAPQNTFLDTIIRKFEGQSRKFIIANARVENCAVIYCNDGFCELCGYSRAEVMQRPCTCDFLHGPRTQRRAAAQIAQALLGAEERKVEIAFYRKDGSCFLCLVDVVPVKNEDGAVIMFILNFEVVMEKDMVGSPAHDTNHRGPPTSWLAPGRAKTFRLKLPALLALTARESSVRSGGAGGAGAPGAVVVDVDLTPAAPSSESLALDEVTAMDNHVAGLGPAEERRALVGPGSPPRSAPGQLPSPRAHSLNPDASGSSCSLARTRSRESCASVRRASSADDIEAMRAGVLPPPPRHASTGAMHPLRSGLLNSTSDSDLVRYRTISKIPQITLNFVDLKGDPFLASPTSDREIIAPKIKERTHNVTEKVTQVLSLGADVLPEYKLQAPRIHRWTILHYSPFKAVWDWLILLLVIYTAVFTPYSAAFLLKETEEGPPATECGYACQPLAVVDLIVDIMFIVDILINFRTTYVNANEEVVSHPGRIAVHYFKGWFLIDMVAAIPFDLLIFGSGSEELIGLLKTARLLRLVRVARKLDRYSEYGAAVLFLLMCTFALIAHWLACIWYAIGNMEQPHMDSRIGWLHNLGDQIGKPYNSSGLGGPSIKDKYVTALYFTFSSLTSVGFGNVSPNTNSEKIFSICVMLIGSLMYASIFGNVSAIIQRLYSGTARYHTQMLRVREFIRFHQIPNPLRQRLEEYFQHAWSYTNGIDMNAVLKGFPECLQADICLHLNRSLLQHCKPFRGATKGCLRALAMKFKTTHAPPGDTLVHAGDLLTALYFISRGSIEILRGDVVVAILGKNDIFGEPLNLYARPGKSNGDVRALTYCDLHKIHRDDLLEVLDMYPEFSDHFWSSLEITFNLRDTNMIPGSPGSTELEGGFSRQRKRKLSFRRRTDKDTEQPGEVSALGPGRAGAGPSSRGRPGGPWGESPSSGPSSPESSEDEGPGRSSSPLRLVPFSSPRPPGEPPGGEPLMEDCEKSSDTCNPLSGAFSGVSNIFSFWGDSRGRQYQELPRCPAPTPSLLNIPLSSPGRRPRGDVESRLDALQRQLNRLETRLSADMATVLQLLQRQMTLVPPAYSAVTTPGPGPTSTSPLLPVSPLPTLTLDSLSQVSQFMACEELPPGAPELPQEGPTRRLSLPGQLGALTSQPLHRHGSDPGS

[33] = system: Canis familiaris; assay: Toxicity in beagle dog assessed as compound-induced cadiomyocyte vacuole formation at 10 mg/kg, po administered for 7 days; assay type: organism-based, Canis lupus familiaris; parameters: dose 10 mg/kg, route oral; details: in vivo, 168 h
[34] = system: Rattus norvegicus; assay: Toxicity in Sprague-Dawley rat assessed as compound-induced phospholipidosis in lung at >= 50 mg/kg, po administered for 4 days; assay type: organism-based; parameters: dose 50 mg/kg, route oral; details: in vivo, 96 h
[35] = AUC (0 to 24 hrs) in po dosed Sprague-Dawley rat administered for 4 days; assay type: ADME, organism-based; parameters: time < 24 hr, route oral; details: plasma
[36] = Genotoxicity in micronucleus
[37] = Cmax in Sprague-Dawley rat at 400 mg/kg, po administered for 4 days; assay type: ADME, organism-based; parameters: dose 400 mg/kg, route oral; details: in vivo
[38] = system: Rattus norvegicus; assay: Toxicity in Sprague-Dawley rat assessed as compound-induced phospholipidosis in kidney at >= 50 mg/kg, po administered for 4 days; assay type: organism-based; parameters: dose 50 mg/kg, route oral; details: in vivo, 96 h
[39] = system: Rattus norvegicus; assay: Toxicity in Sprague-Dawley rat assessed as compound-induced phospholipidosis at 30 mg/kg, po administered for 14 days; assay type: organism-based; parameters: dose 30 mg/kg, route oral; details: in vivo, 336 h
[40] = Cmax in po dosed Sprague-Dawley rat administered for 4 days; assay type: ADME, organism-based; parameters: route oral; details: in vivo
[41] = system: Rattus norvegicus; assay: Toxicity in Sprague-Dawley rat assessed as mortality at 400 mg/kg, po administered for 4 days; assay type: organism-based; parameters: dose 400 mg/kg, route oral; details: in vivo, 96 h
[42] = Apparent permeability across apical to basolateral side in MDCK cells at 2 uM; assay type: ADME, cell-based, Canis lupus familiaris; details: dog
[43] = Toxicity in po dosed Sprague-Dawley rat administered for 4 days; assay type: organism-based; details: in vivo
[44] = system: Rattus norvegicus; assay: Toxicity in Sprague-Dawley rat assessed as compound-induced phospholipidosis at 5 to 30 mg/kg, po administered for 14 days; assay type: organism-based; parameters: dose 5-30 mg/kg, route oral; details: in vivo, 336 h
[45] = AUC in Sprague-Dawley rat at 5 mg/kg, po administered for 4 days; assay type: ADME, organism-based; parameters: dose 5 mg/kg, route oral; details: plasma
[46] = system: Canis familiaris; assay: Toxicity in beagle dog assessed as compound-induced cadiomyocyte vacuole formation at 25 mg/kg, po administered for 7 days; assay type: organism-based, Canis lupus familiaris; parameters: dose 25 mg/kg, route oral; details: in vivo, 168 h
[47] = AUC in Sprague-Dawley rat at >[…] mg/kg, po administered for 4 days; assay type: ADME, organism-based; details: plasma, 50 mg/kg
[48] = system: Rattus norvegicus; assay: Toxicity in Sprague-Dawley rat assessed as compound-induced phospholipidosis in lung at >= 50 mg/kg, po administered for 14 days; assay type: organism-based; parameters: dose 50 mg/kg, route oral; details: in vivo, 336 h
[49] = AUC in Sprague-Dawley rat at >[…] mg/kg, po administered for 14 days measured on day 1; assay type: ADME, organism-based; details: plasma, 50 mg/kg
[50] = system: Rattus norvegicus; assay: Toxicity in Sprague-Dawley rat assessed as compound-induced phospholipidosis in liver at >= 50 mg/kg, po administered for 14 days; assay type: organism-based; parameters: dose 50 mg/kg, route oral; details: in vivo, 336 h
[51] = AUC in beagle dog at 30 mg/kg, po administered for 7 days; assay type: ADME, organism-based, Canis lupus familiaris; parameters: dose 30 mg/kg, route oral; details: plasma
[52] = system: Canis familiaris; assay: Toxicity in beagle dog assessed as convulsion at 50 mg/kg, po administered for 7 days measured on day 2; assay type: organism-based, Canis lupus familiaris; parameters: dose 50 mg/kg, route oral; details: in vivo, 168 h
[53] = AUC in beagle dog at 50 mg/kg, po administered for 7 days measured on day 1; assay type: ADME, organism-based, Canis lupus familiaris; parameters: dose 50 mg/kg, route oral; details: plasma
[54] = system: Canis familiaris; assay: Toxicity in beagle dog assessed as testicular degradation at 30 mg/kg, po administered for 7 days; assay type: organism-based, Canis lupus familiaris; parameters: dose 30 mg/kg, route oral; details: in vivo, 168 h
[55] = AUC in Sprague-Dawley rat at 10 to 300 mg/kg, po administered for 14 days measured on day 1; assay type: ADME, organism-based; parameters: dose 10-300 mg/kg, route oral; details: plasma
[56] = system: Canis familiaris; assay: Toxicity in beagle dog assessed as compound-induced cadiomyocyte vacuole formation at 30 mg/kg, po administered for 7 days; assay type: organism-based, Canis lupus familiaris; parameters: dose 30 mg/kg, route oral; details: in vivo, 168 h
[57] = in vivo; details: beagle, dog, po, 50 mg/kg

| SMILES | MTD at 336 h [3] [mg/kg] | Ki [5] | Cmax at 168 h [7] [µM] | Tmax at 168 h [8] [min] | Ki [9] [nM] | AUC at 24 h [10] [ng·h/mL] | fraction unbound [11] | AUC at 24 h [12] [ng·h/mL] | half-life [14] [min] | CL free [15] [mL/min/kg] | MTD at 168 h [17] [mg/kg] | Ki [18] [nM] | Ki [19] | fraction unbound [20] | efflux ratio [21] | Tmax at 336 h [22] [min] | pKa [23] | Papp A→B at 2 µM [26] [×10⁻⁶ cm/s] | Cmax at 336 h [28] [µM] | Tmax at 96 h [29] [min] | also measured |
| --- | --- | --- | --- | --- | --- | --- | --- | --- | --- | --- | --- | --- | --- | --- | --- | --- | --- | --- | --- | --- | --- |
| CCNC(=O)[C@H]1C[C@@](F)(c2ccc(CN3CCCC3)c(F)c2)C1 [PF-03654746] | 30 | 1.7 nM | 13 | 30 | 37 | 189000 | 0.7 | 18900 | > 120 | < 5 | ≥ 15 | 8.9 | 2.3 nM | 0.66 | 1.1 | 30 | 9.2 | 44.7 | 43.5 | 30 | MED [1]: 302.4 µM; Activity [2]: Toxic; bioavailability [4]: 25.9%; Activity [6]: Toxic; Activity [13]: Toxic; Ratio Ki [16]: > 1000; Kp [24]: 2.1; AUC at 336 h [25]: 189000 ng·h/mL; Activity [27]: Toxic; Ratio Ki [30]: > 1000; Ratio Ki [31]: > 1000 |
| c1cc([C@H]2C[C@@H](CN3CCOCC3)C2)ccc1CN1CCCC1 | ≥ 30 | 0.89 nM | 0.148 | 30 | 7.7 | 15500 | 0.72 | 740 | > 120 | < 8 | < 10 | 3.5 | 2.2 nM | 0.78 | < 0.95 | 30 | 7.7 | 8.2 | 5 | 30 | IC50 [32]: 300000 nM; Activity [33]: Toxic; Activity [34]: Toxic; AUC at 24 h [35]: 1240 ng·h/mL; Activity [36]: Non-toxic; Cmax [37]: 3920 ng/mL; Activity [38]: Toxic; Activity [39]: Non-toxic; Cmax [40]: 0.302 µM; Activity [41]: Toxic; Papp A→B at 2 µM [42]: > 10 ×10⁻⁶ cm/s; MTD at 96 h [43]: ≥ 5 mg/kg; Activity [44]: Toxic; AUC at 96 h [45]: 1240 ng·h/mL; Activity [46]: Toxic; AUC at 96 h [47]: 17400 ng·h/mL |
| CC(C)CNC(=O)[C@H]1C[C@@](F)(c2ccc(CN3CCCC3)c(F)c2)C1 [PF-03654764] | ≥ 300 | 1.2 nM and 1.05 nM | 18 | 30 | 19 | 67400 | 0.56 | 18200 | > 120 | < 5 | ≥ 15 | 7.9 | 1.4 nM | 0.34 | 0.96 | 30 | 9.2 | 38.8 | 23 | 30 | bioavailability [4]: 20.2%; Ratio Ki [16]: > 1000; Ratio Ki [30]: > 1000; Ratio Ki [31]: > 1000 |
| CN(C)Cc1ccc(-c2ccc(CN(C)C)cc2)cc1 | – | – | – | – | 9.3 | – | – | – | – | 219 | – | – | 1.3 nM | – | – | – | – | – | – | – | – |
| c1cnc(OC[C@H]2C[C@H](c3ccc(CN4CCCC4)cc3)C2)nc1 | ≥ 5 | 12 nM | – | 30 | 82 | 1280 | 0.47 | – | > 120 | < 8 | – | 79 | 8.7 nM | 0.44 | 0.9 | 30 | 9.8 | 32.5 | 0.402 | 30 | MED [1]: 119.5 µM; Activity [48]: Toxic; AUC at 336 h [49]: 21300 ng·h/mL; Activity [50]: Toxic |
| CC(=O)N(C)C[C@H]1C[C@H](c2ccc(CN3CCCC3)c(Cl)c2)C1 | ≥ 300 | 3.3 nM | 5.13 | 30 | 160 | 4440 | – | 2910 | > 120 | < 8 | < 30 | 21 | 14 nM and 12.9 nM | 0.24 | 1.27 | 30 | 9.3 | 53.4 | 6.29 | 30 | MED [1]: 245.3 µM; AUC at 168 h [51]: 2910 ng·h/mL; Activity [52]: Toxic; AUC at 168 h [53]: 4780 ng·h/mL; Activity [54]: Toxic; AUC at 336 h [55]: ≤ 4440 ng·h/mL; Activity [56]: Toxic; Cmax [57]: 3200 ng/mL |
